For one assay, the system named is A549 (NSCLC) cells. The assay is described as follows: Anti-proliferative activity, Cell-Titre luminescent viability assay. The format is cell-based. The settings on record: Homo sapiens, 72 h exposure, Cell-Titre luminescent reagent. As for the experimental part: (§1) The ability of compounds of the disclosure to inhibit the proliferation of cancer cells representative of non-small cell lung cancer and ovarian cancer (Table 1), and pancreatic cancer, colorectal cancer and prostate cancer (Table 2) was assessed. Briefly, a predetermined number of cells as calculated from cell growth assays for each of the cell lines employed were seeded into their respective culture medium (using ATCC culture parameters—http://www.atcc.org) and cultured for 24 h at 37° C. and 5% CO2 in 96-well culture plates. Once attached, each cell line was then exposed to various concentrations of each respective analogue (100, 30, 10, 3, 1 and 0.3 µM or 30, 10, 3, 1, 0.3 and 0.1 μM), cultured for a further 72 h and exposed to Cell-Titre luminescent reagent (100 μL/well) for a further 30 min. Luminescence was captured using an EnVision multilabel reader and the data for each analogue concentration compared against no treatment control. Cell viability was normalised to control (vehicle alone) and dose response curves, and half maximal effective concentration (EC50) values were determined using Graph Pad Prism 6 (nonlinear regression sigmoidal dose-response variable slope).

Another assay has as its system A2780 (ovarian) cells. Described as above. The class given is cell-based. As to conditions: Homo sapiens, 72 h exposure, Cell-Titre luminescent reagent. As for the experimental part:
as §1

The values below come from patent US12528792B2, “Sulfonamide compounds and the use thereof in the treatment of cancer” (TROBIO THERAPEUTICS PTY LTD, priority 2019, dated 2026).

The term IC50 denotes the concentration that inhibits the measured activity by half. On to `O=C(Nc1ccc(F)cn1)c1ccn(S(=O)(=O)c2ccc3[nH]ccc3c2)n1` [Compound 84, 1-((1H-indol-5-yl)sulfonyl)-N-(5-fluoropyridin-2-yl)-1H-pyrazole-3-carboxamide], for which the IC50 in the assay with A549 (NSCLC) cells and in the assay on A2780 (ovarian) cells was above 30 µM throughout.
As to `O=C(Nc1ccc(F)c(Cl)c1)c1ccn(S(=O)(=O)c2ccc3[nH]ccc3c2)c1` [Compound 70, 1-((1H-indol-5-yl)sulfonyl)-N-(3-chloro-4-fluorophenyl)-1H-pyrrole-3-carboxamide], the half-maximal inhibitory concentration (IC50) in the assay with A549 (NSCLC) cells was 13.8 µM; with A2780 (ovarian) cells it was 12.2 µM.
On to `COc1ccc(NC(=O)c2ccn(S(=O)(=O)c3ccc4[nH]ccc4c3)c2)cc1F` [Compound 103, 1-((1H-indol-5-yl)sulfonyl)-N-(3-fluoro-4-methoxyphenyl)-1H-pyrrole-3-carboxamide], for which the IC50 in the assay with A549 (NSCLC) cells and in the assay with A2780 (ovarian) cells was above 30 µM each time.
In the case of `Cn1cc(S(=O)(=O)n2ccc(C(=O)Nc3ccc(C(F)(F)F)cc3)c2)cc1C(N)=O` [Compound 20, 1-methyl-4-((3-((4-(trifluoromethyl)phenyl)carbamoyl)-1H-pyrrol-1-yl)sulfonyl)-1H-pyrrole-2-carboxamide], the figures for the IC50 with A549 (NSCLC) cells and with A2780 (ovarian) cells were above 100 µM and 24.7 µM, respectively.
With `O=C(Nc1ccc(Cl)nc1)c1ccn(S(=O)(=O)c2ccc3[nH]ccc3c2)c1` [Compound 75, 1-((1H-indol-5-yl)sulfonyl)-N-(6-chloropyridin-3-yl)-1H-pyrrole-3-carboxamide], the values for the 50% inhibitory concentration (IC50) in the assay with A549 (NSCLC) cells and in the assay on A2780 (ovarian) cells were 18.6 µM and 26.7 µM, respectively.
Turning to `CC(C)(C)c1ccc(NC(=O)c2ccn(S(=O)(=O)c3ccc4[nH]ccc4c3)n2)cc1F` [Compound 114, 1-((1H-indol-5-yl)sulfonyl)-N-(4-(tert-butyl)-3-fluorophenyl)-1H-pyrazole-3-carboxamide], the half-inhibitory concentration (IC50) stood at 5.93 µM in the assay on A549 (NSCLC) cells and 10.5 µM in the assay with A2780 (ovarian) cells.
In the case of `N#Cc1ccc(NC(=O)c2ccn(S(=O)(=O)c3ccc4[nH]ccc4c3)n2)cc1` [Compound 79, 1-((1H-indol-5-yl)sulfonyl)-N-(4-cyanophenyl)-1H-pyrazole-3-carboxamide], the IC50 is 6.72 µM in the assay on A549 (NSCLC) cells and above 30 µM in the assay on A2780 (ovarian) cells.
The like results for `O=C(Nc1ccc(Cl)cn1)c1ccn(S(=O)(=O)c2ccc3[nH]ccc3c2)n1` [Compound 85] were, in that order, 11.1 µM and 21.3 µM.
Regarding `Cc1ccc(NC(=O)N2CCN(S(=O)(=O)c3cc(C(N)=O)n(C)c3)CC2)cc1O` [Compound 10, 4-((5-carbamoyl-1-methyl-1H-pyrrol-3-yl)sulfonyl)-N-(3-hydroxy-4-methylphenyl)piperazine-1-carboxamide], the IC50 in the assay with A549 (NSCLC) cells and in the assay with A2780 (ovarian) cells was above 100 µM in each case.
With `Cc1ccc(NC(=O)c2ccn(S(=O)(=O)c3cc(C(N)=O)n(C)c3)c2)cc1O` [Compound 19, 4-((3-((3-hydroxy-4-methylphenyl)carbamoyl)-1H-pyrrol-1-yl)sulfonyl)-1-methyl-1H-pyrrole-2-carboxamide], the IC50 was above 100 µM in the assay on A549 (NSCLC) cells and at least 100 µM in the assay on A2780 (ovarian) cells.
For the compound `O=C(Nc1ccc2c(c1)OCO2)c1ccn(S(=O)(=O)c2ccc3[nH]ccc3c2)c1` [Compound 104, 1-((1H-indol-5-yl)sulfonyl)-N-(benzo[d][1,3]dioxol-5-yl)-1H-pyrrole-3-carboxamide], the IC50 with A549 (NSCLC) cells was above 30 µM; in the assay with A2780 (ovarian) cells it was 8.92 µM.
`Cc1cc(F)cc(NC(=O)c2ccn(S(=O)(=O)c3ccc4[nH]ccc4c3)c2)c1` [Compound 56, 1-((1H-indol-5-yl)sulfonyl)-N-(3-fluoro-5-methylphenyl)-1H-pyrrole-3-carboxamide]: the values for the IC50 in the assay on A549 (NSCLC) cells and in the assay on A2780 (ovarian) cells were 17.9 µM and 19.5 µM, respectively.
`CCCc1ccc(NC(=O)c2ccn(S(=O)(=O)c3ccc4[nH]ccc4c3)c2)cc1F` [Compound 97, 1-((1H-indol-5-yl)sulfonyl)-N-(3-fluoro-4-propylphenyl)-1H-pyrrole-3-carboxamide]: the IC50 in the assay with A549 (NSCLC) cells came out at 10.7 µM; in the assay on A2780 (ovarian) cells, 8.31 µM.
As to `O=C(Nc1ccc(F)nc1)c1ccn(S(=O)(=O)c2ccc3[nH]ccc3c2)c1` [Compound 74, 1-((1H-indol-5-yl)sulfonyl)-N-(6-fluoropyridin-3-yl)-1H-pyrrole-3-carboxamide], the IC50 is above 30 µM in the assay on A549 (NSCLC) cells and 3.9 µM in the assay with A2780 (ovarian) cells.
On to `Cc1ccc(NC(=O)N2CCN(S(=O)(=O)c3ccc4c(c3)CCN4)CC2)cc1O` [Compound 13, N-(3-hydroxy-4-methylphenyl)-4-(indolin-5-ylsulfonyl)piperazine-1-carboxamide], for which the IC50 in the assay on A549 (NSCLC) cells and with A2780 (ovarian) cells was above 100 µM in each case.
`O=C(Nc1ccc(Cl)c(F)c1)c1ccn(S(=O)(=O)c2ccc3[nH]ccc3c2)n1` [Compound 81, 1-((1H-indol-5-yl)sulfonyl)-N-(4-chloro-3-fluorophenyl)-1H-pyrazole-3-carboxamide]: the IC50 in the assay on A549 (NSCLC) cells was above 30 µM; with A2780 (ovarian) cells, 9.33 µM.
Turning to `CCC(C)c1ccc(NC(=O)N2CCN(S(=O)(=O)c3ccc4c(c3)CCN4)CC2)cc1` (centres unmarked) [Compound 12, N-(4-(sec-butyl)phenyl)-4-(indolin-5-ylsulfonyl)piperazine-1-carboxamide], the half-inhibitory concentration (IC50) in the assay on A549 (NSCLC) cells and in the assay with A2780 (ovarian) cells was above 100 µM each time.
On to `CC(C)Cc1ccc(NC(=O)c2ccn(S(=O)(=O)c3ccc4[nH]ccc4c3)c2)cc1` [Compound 98, 1-((1H-indol-5-yl)sulfonyl)-N-(4-isobutylphenyl)-1H-pyrrole-3-carboxamide], for which the IC50 turned out to be 13.2 µM with A549 (NSCLC) cells and 5.07 µM with A2780 (ovarian) cells.
In the same order, the values of `Cc1ccccc1NC(=O)C1CCN(S(=O)(=O)c2ccc3[nH]ccc3c2)CC1` [Compound 62, 1-((1H-indol-5-yl)sulfonyl)-N-(o-tolyl)piperidine-4-carboxamide] are above 30 µM and above 30 µM.
The like results for `COc1ccc(NC(=O)c2ccn(S(=O)(=O)c3ccc4[nH]ccc4c3)c2)cc1` [Compound 102, 1-((1H-indol-5-yl)sulfonyl)-N-(4-methoxyphenyl)-1H-pyrrole-3-carboxamide] were, in that order, 16.1 µM and 13.4 µM.
Take `O=C(Nc1cc(F)cc(F)c1)c1ccn(S(=O)(=O)c2ccc3[nH]ccc3c2)c1` [Compound 54, 1-((1H-indol-5-yl)sulfonyl)-N-(3,5-difluorophenyl)-1H-pyrrole-3-carboxamide]: the results for the IC50 in the assay on A549 (NSCLC) cells and in the assay with A2780 (ovarian) cells were 13.1 µM and 8.2 µM, respectively.
For the compound `CCc1ccccc1NC(=O)c1ccn(S(=O)(=O)c2ccc3[nH]ccc3c2)c1` [Compound 42, 1-((1H-indol-5-yl)sulfonyl)-N-(2-ethylphenyl)-1H-pyrrole-3-carboxamide], the IC50 is 9.8 µM with A549 (NSCLC) cells and 13.4 µM with A2780 (ovarian) cells.
For the compound `Cc1cc(C)cc(NC(=O)c2ccn(S(=O)(=O)c3ccc4[nH]ccc4c3)c2)c1` [Compound 52, 1-((1H-indol-5-yl)sulfonyl)-N-(3,5-dimethylphenyl)-1H-pyrrole-3-carboxamide], the values for the IC50 with A549 (NSCLC) cells and in the assay with A2780 (ovarian) cells were 10.7 µM and 11.8 µM, respectively.
On to `O=C(Nc1ccc(Cl)nc1)c1ccn(S(=O)(=O)c2ccc3[nH]ccc3c2)n1` [Compound 87, 1-((1H-indol-5-yl)sulfonyl)-N-(6-chloropyridin-3-yl)-1H-pyrazole-3-carboxamide], for which the IC50 was above 30 µM in the assay on A549 (NSCLC) cells and at least 30 µM in the assay on A2780 (ovarian) cells.
For the compound `COc1ccc(NC(=O)c2ccn(S(=O)(=O)c3ccc4[nH]ccc4c3)n2)cc1` [Compound 115, 1-((1H-indol-5-yl)sulfonyl)-N-(4-methoxyphenyl)-1H-pyrazole-3-carboxamide], the IC50 with A549 (NSCLC) cells and with A2780 (ovarian) cells was above 30 µM in each case.
